This note sets out measurements from patent US20250326771A1, “PIPERAZINE DERIVATIVES USEFUL IN HIV THERAPY” (VIIV HEALTHCARE COMPANY, priority 2022, published 2025).

pIC50: −log10 of the molar value.

The test system of experiment [1] is Jurkat HIV-luciferase clones. Nature of the experiment: Jurkat latency reversal assay. The format is cell-based. The note with it: Jurkat latency reversal assay potency; for EC50: Homo sapiens, 48 h, read-out: Jurkat pEC50 (converted). A digest of the protocol:
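Pooled Jurkat clones C16, 115 and N6, each carrying one or two integrated HIV-luciferase proviruses and kept in 500 nM EFV, were exposed to 3-fold, 14-point compound titrations in duplicate (10 μM top, 0.5% DMSO) for 48 h at 37° C. Luciferase luminescence was fitted by four-parameter logistic regression for EC50 and maximal percent activation versus vehicle.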

The target of another experiment is cIAP1-BIR3 (Homo sapiens (Human), UniProt Q13490). Description: BIR binding assay (FRET competition), cIAP1 BIR3. The note with it: for cIAP1 BIR3 vs BIR2 separation window: fold separation (FS) for cIAP1. The method in brief:
(§1)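 615/665 nm FRET ratio. Compound, His-domain and 200 nM AF647-SMAC peptide incubated 60 min, then 2 nM Eu-W1024 for 30 min. Domains: cIAP1-BIR3 50 nM; XIAP-BIR3 100 nM; cIAP1-BIR2, cIAP2-BIR2 325 nM each. 15-pt 3-fold series; variable-slope IC50.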

The target in a further experiment is cIAP1-BIR2 (Homo sapiens (Human), UniProt Q13490). Description: BIR binding assay (FRET competition), cIAP1 BIR2. A digest of the protocol: as §1
For another experiment, the target named is cIAP2-BIR3 (Homo sapiens (Human), UniProt Q13489). Nature of the experiment: BIR binding assay (FRET competition), cIAP2 BIR3. The note with it: for cIAP2 BIR3 vs BIR2 separation window: fold separation (FS) for cIAP2.
In the next experiment the target is cIAP2-BIR2 (Homo sapiens (Human), UniProt Q13489). Nature of the experiment: BIR binding assay (FRET competition), cIAP2 BIR2. A digest of the protocol: as §1
The target in a further experiment is XIAP-BIR3 (Homo sapiens (Human), UniProt P98170). Description: BIR binding assay (FRET competition), XIAP BIR3. A digest of the protocol: as §1
Chain of XIAP-BIR3 (P98170 241-356): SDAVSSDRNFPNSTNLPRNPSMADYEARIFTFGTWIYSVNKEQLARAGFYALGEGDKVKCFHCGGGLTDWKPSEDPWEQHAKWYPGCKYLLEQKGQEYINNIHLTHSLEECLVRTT

Chain of cIAP2-BIR3 (Q13489 238-349): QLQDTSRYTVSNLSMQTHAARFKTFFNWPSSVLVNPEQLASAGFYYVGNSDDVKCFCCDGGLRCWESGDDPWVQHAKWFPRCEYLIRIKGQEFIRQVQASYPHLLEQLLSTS
Chain of cIAP1-BIR2 (Q13490 173-257): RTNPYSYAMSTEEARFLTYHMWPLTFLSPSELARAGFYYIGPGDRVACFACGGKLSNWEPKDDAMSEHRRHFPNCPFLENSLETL
Chain of cIAP1-BIR3 (Q13490 253-363): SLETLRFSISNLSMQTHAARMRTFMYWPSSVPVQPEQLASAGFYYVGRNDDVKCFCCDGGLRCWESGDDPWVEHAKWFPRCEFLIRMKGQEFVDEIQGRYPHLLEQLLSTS
Chain of cIAP2-BIR2 (Q13489 158-242): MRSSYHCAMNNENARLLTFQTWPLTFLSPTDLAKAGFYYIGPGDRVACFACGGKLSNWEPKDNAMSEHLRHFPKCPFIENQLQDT

Regarding `C[C@@H]1CN(CC(=O)N2CC(C)(C)c3[nH]c(=O)c(Cc4ccc(Cl)cc4C#N)cc32)[C@@H](CN2CCO[C@H](COc3cccc(OC[C@@H]4CN(C[C@H]5CN[C@H](C)CN5CC(=O)N5CC(C)(C)c6[nH]c(=O)c(Cc7ccc(Cl)cc7C#N)cc65)CCO4)c3)C2)CN1` [Compound 189], the EC50 in experiment [1] is 0.49 to 12.6 nM. The pIC50 (commonly the negative decadic logarithm of the IC50, by convention in mol/L) on cIAP1-BIR3 is 7.50 to 7.80; on cIAP1-BIR2, 5.50 to 6.00; on cIAP2-BIR3, 7.50 to 7.80; at cIAP2-BIR2, 5.00 to 5.50; on XIAP-BIR3, 6.30 to 7.50. Besides, the “cIAP1 BIR3 vs BIR2 separation window” value on cIAP1-BIR3 is on record as “+++ (10,000>FS>1,000)”. Also, the “cIAP2 BIR3 vs BIR2 separation window” value on cIAP2-BIR3 was “+++ (10,000>FS>1,000)”.

In the case of `C[C@@H]1CN(CC(=O)N2CC(C)(C)c3[nH]c(=O)c(Cc4ccc(F)cc4)cc32)[C@@H](CN2CCO[C@H](COCCCCCOC[C@@H]3CN(C[C@H]4CN[C@H](C)CN4CC(=O)N4CC(C)(C)c5[nH]c(=O)c(Cc6ccc(F)cc6)cc54)CCO3)C2)CN1` [Example 82, 1,1′-(2,2′-((3R,3′R,6R,6′R)-(((2S,2'S)-((pentane-1,5-diylbis(oxy))bis(methylene))bis(morpholine-2,4-diyl))bis(methylene))bis(3-methylpiperazine-6,1-diyl))bis(acetyl))bis(6-(4-fluorobenzyl)-3,3-dimethyl-1,2,3,4-tetrahydro-5H-pyrrolo[3,2-b]pyridin-5-one)], the EC50 in experiment [1] was 0.49 to 12.6 nM. For the same molecule, the pIC50 at cIAP1-BIR3 is 7.50 to 7.80; on cIAP1-BIR2, 4.29 to 5.00; on cIAP2-BIR3 it was 7.50 to 7.80; at cIAP2-BIR2, 5.50 to 6.00; on XIAP-BIR3, 6.30 to 7.50. In addition, on cIAP1-BIR3, the “cIAP1 BIR3 vs BIR2 separation window” value was “++++ (FS>10,000)”. Further, the “cIAP2 BIR3 vs BIR2 separation window” value at cIAP2-BIR3 is reported as “+++ (10,000>FS>1,000)”.

Take `C[C@@H]1CN(CC(=O)N2CC(C)(C)c3[nH]c(=O)c(Cc4ccc(F)cc4)cc32)[C@@H](CN2CCO[C@H](COc3ccc(Oc4ccc(OC[C@@H]5CN(C[C@H]6CN[C@H](C)CN6CC(=O)N6CC(C)(C)c7[nH]c(=O)c(Cc8ccc(F)cc8)cc76)CCO5)cc4)cc3)C2)CN1` [Example 55, 1,1′-(2,2′-((3R,3′R,6R,6′R)-(((2S,2'S)-(((oxybis(4,1-phenylene))bis(oxy))bis(methylene))bis(morpholine-2,4-diyl))bis(methylene))bis(3-methylpiperazine-6,1-diyl))bis(acetyl))bis(6-(4-fluorobenzyl)-3,3-dimethyl-1,2,3,4-tetrahydro-5H-pyrrolo[3,2-b]pyridin-5-one)]: the “Jurkat pEC50” value in experiment [1] was “++++ (9.31>pEC50>=7.90)”. For the same molecule, the “cIAP1 BIR3 (pIC50)” value at cIAP1-BIR3 (FRET competition binding) is listed as “+ (7.50>pIC50>=6.30)”. Also, at cIAP1-BIR3, the “cIAP1 BIR3 vs BIR2 separation window” value is “++++ (FS>10,000)”. The “cIAP1 BIR2 (pIC50)” value at cIAP1-BIR2 (FRET competition binding) was “+ (4.29<pIC50<=5.00)”. Moreover, the “cIAP2 BIR3 (pIC50)” value at cIAP2-BIR3 (FRET competition binding) is listed as “+++ (8.10>pIC50>=7.80)”. The “cIAP2 BIR3 vs BIR2 separation window” value on cIAP2-BIR3 is “++++ (FS>10,000)”. Also, at cIAP2-BIR2 (FRET competition binding), the “cIAP2 BIR2 (pIC50)” value was “+ (4.29<pIC50<=5.00)”. Also, the “XIAP BIR3 (pIC50)” value at XIAP-BIR3 (FRET competition binding) is “++ (7.80>pIC50>=7.50)”.

Take `C[C@@H]1CN(CC(=O)N2CC(C)(C)c3[nH]c(=O)c(Cc4ccc(F)cc4)cc32)[C@@H](CN2CCO[C@H](COc3cc(C#N)cc(OC[C@@H]4CN(C[C@H]5CN[C@H](C)CN5CC(=O)N5CC(C)(C)c6[nH]c(=O)c(Cc7ccc(F)cc7)cc65)CCO4)c3)C2)CN1` [Example 76, 3,5-bis(((S)-4-(((2R,5R)-1-(2-(6-(4-fluorobenzyl)-3,3-dimethyl-5-oxo-2,3,4,5-tetrahydro-1H-pyrrolo[3,2-b]pyridin-1-yl)-2-oxoethyl)-5-methylpiperazin-2-yl)methyl)morpholin-2-yl)methoxy)benzonitrile]: the EC50 in experiment [1] is 0.49 to 12.6 nM. Moreover, the pIC50 at cIAP1-BIR3 was 7.80 to 8.10; on cIAP1-BIR2, 5.00 to 5.50; at cIAP2-BIR3, 8.10 to 8.86; on cIAP2-BIR2, 5.50 to 6.00; at XIAP-BIR3, 7.50 to 7.80. Also, the “cIAP1 BIR3 vs BIR2 separation window” value on cIAP1-BIR3 is reported as “+++ (10,000>FS>1,000)”. Also, at cIAP2-BIR3, the “cIAP2 BIR3 vs BIR2 separation window” value is given as “+++ (10,000>FS>1,000)”.

Take `C[C@@H]1CN(CC(=O)N2CC(C)(C)c3[nH]c(=O)c(Cc4c(Cl)cc(Cl)cc4Cl)cc32)[C@@H](CN2CCO[C@H](C(=O)NCc3ccc(CNC(=O)[C@@H]4CN(C[C@H]5CN[C@H](C)CN5CC(=O)N5CC(C)(C)c6[nH]c(=O)c(Cc7c(Cl)cc(Cl)cc7Cl)cc65)CCO4)cc3)C2)CN1` [Compound 180, (2S,2′S)-N,N′-(1,4-phenylenebis(methylene)) bis(4-(((2R,5R)-1-(2-(3,3-dimethyl-5-oxo-6-(2,4,6-trichlorobenzyl)-2,3,4,5-tetrahydro-1H-pyrrolo[3,2-b]pyridin-1-yl)-2-oxoethyl)-5-methylpiperazin-2-yl)methyl)morpholine-2-carboxamide)]: in experiment [1], the EC50 was 63.1 to 316 nM. Also, the pIC50 on cIAP1-BIR3 is 6.30 to 7.50; on cIAP1-BIR2 it was 4.29 to 5.00; at cIAP2-BIR3 it was 6.30 to 7.50; on cIAP2-BIR2 it was 4.29 to 5.00; at XIAP-BIR3, 6.30 to 7.50. For the same molecule, the “cIAP1 BIR3 vs BIR2 separation window” value at cIAP1-BIR3 is recorded as “++ (1,000>FS>100)”. Besides, on cIAP2-BIR3, the “cIAP2 BIR3 vs BIR2 separation window” value was “++ (1,000>FS>100)”.

Regarding `C[C@@H]1CN(CC(=O)N2CC(C)(C)c3[nH]c(=O)c(Cc4ccc(F)cc4)cc32)[C@@H](CN2CCN(CCCCCCCCCCCCN3CCN(C[C@H]4CN[C@H](C)CN4CC(=O)N4CC(C)(C)c5[nH]c(=O)c(Cc6ccc(F)cc6)cc54)[C@H](C)C3)C[C@H]2C)CN1` [Example 26, 1,1′-(2,2′-((3R,3′R,6R,6′R)-(((2R,2′R)-dodecane-1,12-diylbis(2-methylpiperazine-4,1-diyl))bis(methylene))bis(3-methylpiperazine-6,1-diyl))bis(acetyl))bis(6-(4-fluorobenzyl)-3,3-dimethyl-1,2,3,4-tetrahydro-5H-pyrrolo[3,2-b]pyridin-5-one)], the EC50 in experiment [1] was 12.6 to 63.1 nM. For the same molecule, the pIC50 on cIAP1-BIR3 was 6.30 to 7.50; on cIAP1-BIR2 it was 5.50 to 6.00; at cIAP2-BIR3, 7.80 to 8.10; at cIAP2-BIR2, 5.50 to 6.00; on XIAP-BIR3, 7.50 to 7.80.

As for `C[C@@H]1CN(CC(=O)N2CC(C)(C)c3[nH]c(=O)c(Cc4ccc(F)cc4)cc32)[C@@H](CN2CCN(C(=O)c3ccc(/C=C/c4ccc(C(=O)N5CCN(C[C@H]6CN[C@H](C)CN6CC(=O)N6CC(C)(C)c7[nH]c(=O)c(Cc8ccc(F)cc8)cc76)[C@H](C)C5)cc4)cc3)C[C@H]2C)CN1` [Example 20, 1,1′-(2,2′-((3R,3′R,6R,6′R)-(((2R,2′R)-(4,4′-((E)-ethene-1,2-diyl)bis(benzoyl))bis(2-methylpiperazine-4,1-diyl))bis(methylene))bis(3-methylpiperazine-6,1-diyl))bis(acetyl))bis(6-(4-fluorobenzyl)-3,3-dimethyl-1,2,3,4-tetrahydro-5H-pyrrolo[3,2-b]pyridin-5-one)], in experiment [1], the EC50 was 12.6 to 63.1 nM. Also, the pIC50 on cIAP1-BIR3 was 7.50 to 7.80; on cIAP1-BIR2, 6.00 to 7.65; at cIAP2-BIR3 it was 7.50 to 7.80; at cIAP2-BIR2, 6.00 to 7.65; at XIAP-BIR3, 6.30 to 7.50. The “cIAP1 BIR3 vs BIR2 separation window” value at cIAP1-BIR3 is on record as “+ (100>FS>1)”. In addition, the “cIAP2 BIR3 vs BIR2 separation window” value on cIAP2-BIR3 is “++ (1,000>FS>100)”.

With `Cc1cc(OC[C@@H]2CN(C[C@H]3CN[C@H](C)CN3CC(=O)N3CC(C)(C)c4[nH]c(=O)c(Cc5ccc(F)cc5)cc43)CCO2)cc(OC[C@@H]2CN(C[C@H]3CN[C@H](C)CN3CC(=O)N3CC(C)(C)c4[nH]c(=O)c(Cc5ccc(F)cc5)cc43)CCO2)c1` [Example 86, 1,1′-(2,2′-((3R,3′R,6R,6′R)-(((2S,2'S)-(((5-methyl-1,3-phenylene)bis(oxy))bis(methylene))bis(morpholine-2,4-diyl))bis(methylene))bis(3-methylpiperazine-6,1-diyl))bis(acetyl))bis(6-(4-fluorobenzyl)-3,3-dimethyl-1,2,3,4-tetrahydro-5H-pyrrolo[3,2-b]pyridin-5-one)], the EC50 in experiment [1] was 0.49 to 12.6 nM. For the same molecule, the pIC50 is 7.80 to 8.10 at cIAP1-BIR3; 5.50 to 6.00 at cIAP1-BIR2; 7.80 to 8.10 at cIAP2-BIR3; 5.50 to 6.00 at cIAP2-BIR2; 7.50 to 7.80 on XIAP-BIR3. For the same molecule, on cIAP1-BIR3, the “cIAP1 BIR3 vs BIR2 separation window” value is given as “+++ (10,000>FS>1,000)”. The “cIAP2 BIR3 vs BIR2 separation window” value at cIAP2-BIR3 was “+++ (10,000>FS>1,000)”.

Turning to `C[C@@H]1CN(CC(=O)N2CC(C)(C)c3[nH]c(=O)c(Cc4ccc(Cl)cc4)cc32)[C@@H](CN2CCO[C@H](C(=O)NCc3ccc(CNC(=O)[C@@H]4CN(C[C@H]5CN[C@H](C)CN5CC(=O)N5CC(C)(C)c6[nH]c(=O)c(Cc7ccc(Cl)cc7)cc65)CCO4)cc3)C2)CN1` [Compound 161, (2S,2′S)-N,N′-(1,4-phenylenebis(methylene)) bis(4-(((2R,5R)-1-(2-(6-(4-chlorobenzyl)-3,3-dimethyl-5-oxo-2,3,4,5-tetrahydro-1H-pyrrolo[3,2-b]pyridin-1-yl)-2-oxoethyl)-5-methylpiperazin-2-yl)methyl)morpholine-2-carboxamide)], the EC50 in experiment [1] is 0.49 to 12.6 nM. The pIC50 is 8.10 to 8.86 at cIAP1-BIR3; 6.00 to 7.65 on cIAP1-BIR2; 8.10 to 8.86 at cIAP2-BIR3; 4.29 to 5.00 on cIAP2-BIR2; 7.80 to 8.10 at XIAP-BIR3. Also, on cIAP1-BIR3, the “cIAP1 BIR3 vs BIR2 separation window” value is “+++ (10,000>FS>1,000)”. Further, the “cIAP2 BIR3 vs BIR2 separation window” value at cIAP2-BIR3 is on record as “++++ (FS>10,000)”.
